The values below come from ChEMBL document CHEMBL4627303, “Design, synthesis and evaluation of flurbiprofen-clioquinol hybrids as multitarget-directed ligands against Alzheimer's disease” (Bioorg Med Chem, 2020).

Data set [1] in a line: Antioxidant activity assessed as AAPH-induced radical scavenging activity by measuring trolox equivalents for oxygen radical absorbance capacity measured every minute for 90 mins by ORAC-FL assay. In kind it is functional.
In data set [2] the target is T1, Amine oxidase [flavin-containing] A (Homo sapiens, UniProt P21397).
T1 sequence (P21397 whole entry): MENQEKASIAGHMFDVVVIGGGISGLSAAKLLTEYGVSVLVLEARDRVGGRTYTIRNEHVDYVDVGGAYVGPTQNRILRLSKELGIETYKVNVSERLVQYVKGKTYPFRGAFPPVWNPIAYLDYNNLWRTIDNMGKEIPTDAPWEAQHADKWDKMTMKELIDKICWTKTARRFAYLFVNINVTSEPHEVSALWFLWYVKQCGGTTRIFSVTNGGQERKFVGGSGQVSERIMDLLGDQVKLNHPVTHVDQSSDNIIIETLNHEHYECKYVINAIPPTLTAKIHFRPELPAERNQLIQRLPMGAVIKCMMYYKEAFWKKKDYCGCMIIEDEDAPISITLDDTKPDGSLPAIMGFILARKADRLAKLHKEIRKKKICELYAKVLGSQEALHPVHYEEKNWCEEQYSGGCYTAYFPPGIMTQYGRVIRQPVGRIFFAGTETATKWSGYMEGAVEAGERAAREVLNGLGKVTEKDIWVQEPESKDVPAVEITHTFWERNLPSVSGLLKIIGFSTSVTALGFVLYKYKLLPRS
In words: Inhibition of recombinant human MAOA expressed in baculovirus infected in BTI cells at 10 uM using kynuramine as substrate after 30 mins by fluorescence based assay relative to control. Particulars: 0.5 h.

Data set [3] addresses T2, Amine oxidase [flavin-containing] B (Homo sapiens, UniProt P27338).
T2 sequence (P27338 whole entry): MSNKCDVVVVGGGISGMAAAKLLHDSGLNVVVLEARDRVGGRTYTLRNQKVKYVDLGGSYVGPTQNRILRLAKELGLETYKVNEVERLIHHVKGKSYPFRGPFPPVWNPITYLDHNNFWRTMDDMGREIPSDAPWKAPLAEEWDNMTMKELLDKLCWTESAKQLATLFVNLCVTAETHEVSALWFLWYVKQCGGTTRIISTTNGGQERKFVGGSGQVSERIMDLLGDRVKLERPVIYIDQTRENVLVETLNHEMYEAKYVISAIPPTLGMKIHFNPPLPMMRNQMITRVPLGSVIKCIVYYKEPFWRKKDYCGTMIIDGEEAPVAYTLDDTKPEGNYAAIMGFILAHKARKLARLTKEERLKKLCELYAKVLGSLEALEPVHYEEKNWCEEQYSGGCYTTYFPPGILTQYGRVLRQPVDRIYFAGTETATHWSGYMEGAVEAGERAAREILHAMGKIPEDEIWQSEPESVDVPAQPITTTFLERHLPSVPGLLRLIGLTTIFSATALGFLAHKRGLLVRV
The data set can be described thus: Inhibition of recombinant human MAOB expressed in baculovirus infected in BTI cells at 10 uM using kynuramine as substrate after 30 mins by fluorescence based assay relative to control. Particulars: 0.5 h.

The target of data set [4] is Amyloid-beta precursor protein (Homo sapiens) (UniProt P05067). The data set can be described thus: Inhibition of HFIP-pretreated amyloid beta (1 to 42) (unknown origin) self-aggregation at 25 uM after 24 hrs by thioflavin-T fluorescence assay relative to control.
Data set [5] shares this target. In words: Inhibition of Cu2+-induced HFIP-pretreated amyloid beta (1 to 42) (unknown origin) aggregation at 25 uM measured after 24 hrs by thioflavin-T fluorescence assay relative to control.
Data set [6] has the same target. The data set can be described thus: Disaggregation of self-induced amyloid beta (1 to 42) (unknown origin) preformed fibrils at 25 uM measured after 24 hrs by thioflavin-T fluorescence assay relative to control.
Data set [7] relates to BV-2. In words: Cytotoxicity against mouse BV2 cells assessed as reduction in cell viability at 0.5 to 10 uM measured after 30 mins by MTT assay. In kind it is cell-based. Particulars: bv-2, 0.5 h.
For data set [8], the system named is BV-2. The data set can be described thus: Cytotoxicity against LPS-induced mouse BV2 cells assessed as reduction in cell viability at 0.5 to 10 uM preincubated for 30 mins followed by LPS stimulation and measured after 24 hrs by MTT assay. Particulars: bv-2, 24 h. In kind it is cell-based. On the technique in general: Tetrazolium dyes change colour on reduction, which living cells bring about.

Data set [9] relates to BV-2. In words: Anti-neuroinflammatory activity in mouse BV2 cells assessed as inhibition of LPS-induced NO production at 2.5 uM preincubated for 30 mins followed by LPS stimulation measured after 24 hrs by Griess reagent based assay relative to control. The format is functional. On the technique in general: Nitrite, measured by Griess reagent, commonly stands in for NO production.

Data set [10] has as its system BV-2. In words: Anti-neuroinflammatory activity in mouse BV2 cells assessed as inhibition of LPS-induced NO production at 10 uM preincubated for 30 mins followed by LPS stimulation measured after 24 hrs by Griess reagent based assay relative to control. In kind it is functional.
The test system of data set [11] is BV-2. In words: Effect on nitric oxide production in mouse BV2 cells at 0.5 to 10 uM measured after 30 mins by Griess reagent based […]. In kind it is ADME, cell-based. Particulars: bv-2, 0.5 h.
The test system of data set [12] is BV-2. The data set can be described thus: Anti-neuroinflammatory activity in mouse BV2 cells assessed as inhibition of LPS-induced TNFalpha production at 2.5 uM preincubated for 30 mins followed by LPS stimulation measured after 24 hrs by ELISA relative to control. The format is functional. In general terms: An ELISA detects its analyte on a solid surface through an enzyme-linked reagent.

For data set [13], the system named is BV-2. In words: Anti-neuroinflammatory activity in mouse BV2 cells assessed as inhibition of LPS-induced TNFalpha production at 10 uM preincubated for 30 mins followed by LPS stimulation measured after 24 hrs by ELISA relative to control. In kind it is functional.
In data set [14] the target is T2, Amine oxidase [flavin-containing] B. The data set can be described thus: Inhibition of recombinant human MAOB expressed in baculovirus infected in BTI cells using kynuramine as substrate after 30 mins by fluorescence based assay. The format is cell-based.

As usually defined, the inhibition is the relative decrease from the control value, in per cent. The term IC50 denotes the midpoint of a concentration-inhibition curve.

Amyloid-beta precursor protein (Homo sapiens), sequence (P05067 whole entry): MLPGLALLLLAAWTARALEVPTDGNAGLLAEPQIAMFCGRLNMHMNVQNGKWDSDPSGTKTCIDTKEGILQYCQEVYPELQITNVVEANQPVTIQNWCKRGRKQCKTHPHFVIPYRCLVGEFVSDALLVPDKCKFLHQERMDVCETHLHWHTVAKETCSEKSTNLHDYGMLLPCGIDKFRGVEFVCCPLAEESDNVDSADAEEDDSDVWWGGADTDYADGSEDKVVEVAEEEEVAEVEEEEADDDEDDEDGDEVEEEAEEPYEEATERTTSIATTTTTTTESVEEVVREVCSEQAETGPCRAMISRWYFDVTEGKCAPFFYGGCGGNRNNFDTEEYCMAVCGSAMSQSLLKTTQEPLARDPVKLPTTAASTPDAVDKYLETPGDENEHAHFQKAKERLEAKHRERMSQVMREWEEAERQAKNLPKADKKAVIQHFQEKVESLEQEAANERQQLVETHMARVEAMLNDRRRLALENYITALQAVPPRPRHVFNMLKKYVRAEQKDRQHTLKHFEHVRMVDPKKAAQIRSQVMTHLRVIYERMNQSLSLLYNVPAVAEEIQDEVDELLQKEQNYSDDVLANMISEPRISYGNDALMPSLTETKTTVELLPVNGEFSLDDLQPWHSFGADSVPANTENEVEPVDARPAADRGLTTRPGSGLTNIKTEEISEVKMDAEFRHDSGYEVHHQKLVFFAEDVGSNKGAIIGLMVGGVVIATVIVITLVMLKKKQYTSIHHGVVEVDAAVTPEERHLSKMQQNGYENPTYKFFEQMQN

On to `COC(=O)C(C)c1ccc(-c2ccc(NCc3ccccc3O)cc2)c(F)c1` (stereo not given), for which the Activity in data set [1] was 1.51 µMequiv/µM; in data set [6], 44.1%. Also, the results for the inhibition at 10 µM in data set [2] and in data set [3] were 15.9% and below 5%, respectively. Moreover, the inhibition in data set [4] came out at 24.7%; in data set [5] it was 42.9%.

Regarding `COc1cc(/C=C/C(=O)CC(=O)/C=C/c2ccc(O)c(OC)c2)ccc1O`, the inhibition in [4] and in [5] was 32.5% throughout.

On to `COC(=O)C(C)c1ccc(-c2ccc(NCc3cccc(CN4CCCCC4)c3O)cc2)c(F)c1` (stereo not given), for which the Activity came to 2.02 µMequiv/µM in data set [1] and 43.3% in data set [6]. The inhibition at 10 µM in data set [2] and in data set [3] was below 5% in each case. The inhibition in [4] was determined as 48.8%; in data set [5], 42.4%.

For `COC(=O)C(C)c1ccc(-c2ccc(NCc3cc(Br)cc(Br)c3O)cc2)c(F)c1` (stereo not given), the Activity in data set [1] stood at 1.42 µMequiv/µM; in [6], 35.9%. The inhibition at 10 µM amounted to 17.9% in data set [2] and 16.4% in data set [3]. Further, the inhibition amounted to 57.9% in [4] and 38.3% in [5].

Turning to `CC(C(=O)O)c1ccc(-c2ccccc2)c(F)c1` (stereo not given) [FLURBIPROFEN], the Activity in data set [1] is 0.17 µMequiv/µM; in data set [6], 9.28%; in data set [7], “Non-Toxic”; in [8], “Non-Toxic”; in data set [11], “Non-Toxic”. Also, in data set [5], the inhibition is 7.29%. Also, the inhibition at 2.5 µM was found to be 12.5% in data set [9] and 10.2% in [12]. Also, the inhibition at 10 µM is 26.2% in data set [10] and 31.2% in [13].

As to `COC(=O)C(C)c1ccc(-c2ccc(NCc3ccc(OC)cc3O)cc2)c(F)c1` (stereo not given), the Activity was determined as 1.96 µMequiv/µM in data set [1] and 25.6% in data set [6]. Moreover, the inhibition at 10 µM in [2] is 11.2%; in [3], 22.9%. Further, the results for the inhibition in data set [4] and in data set [5] were 32.8% and 30.6%, respectively.

As to `COC(=O)C(C)c1ccc(-c2ccc(NCc3cc(C)ccc3O)cc2)c(F)c1` (stereo not given), the Activity in data set [1] was 1.56 µMequiv/µM; in data set [6] it was 42.6%. Further, the inhibition at 10 µM was found to be 21.9% in [2] and 11.4% in [3]. Besides, the figures for the inhibition in [4] and in data set [5] were 58.5% and 49.7%, respectively.

Take `COC(=O)C(C)c1ccc(-c2ccc(NCc3cccc(OC)c3O)cc2)c(F)c1` (stereo not given): the Activity was determined as 1.68 µMequiv/µM in data set [1] and 41.7% in [6]. Besides, the inhibition at 10 µM in data set [2] is 10.5%; in data set [3], 11.7%. The results for the inhibition in data set [4] and in data set [5] were 46.2% and 39.9%, respectively.

On to `COC(=O)C(C)c1ccc(-c2ccc(NCc3cc(NC(C)=O)ccc3O)cc2)c(F)c1` (stereo not given), for which the Activity in data set [1] worked out at 1.65 µMequiv/µM; in [6] it was 27.1%. The inhibition at 10 µM is 18.7% in [2] and 46.2% in data set [3]. Further, the IC50 in [14] turned out to be 16.3 µM. In addition, the inhibition in data set [4] was 39.2%; in [5] it was 24%.

Regarding `COC(=O)C(C)c1ccc(-c2ccc(NCc3cc(OC)ccc3O)cc2)c(F)c1` (stereo not given), the Activity in data set [1] is 2.05 µMequiv/µM; in data set [6], 53.3%. Besides, the inhibition at 10 µM worked out at 28.4% in data set [2] and 33.4% in [3]. Further, the inhibition in data set [4] amounted to 73.6%; in data set [5] it was 43.6%.

With `COC(=O)C(C)c1ccc(-c2ccc(NCc3cccc(CN(C)C)c3O)cc2)c(F)c1` (stereo not given), the values for the Activity in data set [1] and in data set [6] were 2.18 µMequiv/µM and 45.1%, respectively. Also, the inhibition at 10 µM in data set [2] was 19.9%; in [3] it was below 5%. Besides, the values for the inhibition in data set [4] and in [5] were 68.6% and 41.9%, respectively.

For the molecule `COC(=O)C(C)c1ccc(-c2ccc(NCc3ccccn3)cc2)c(F)c1` (stereo not given), the Activity stood at 1.15 µMequiv/µM in [1] and 35.5% in data set [6]. Also, the results for the inhibition at 10 µM in data set [2] and in [3] were 36.8% and 45.8%, respectively. Moreover, the IC50 in data set [14] was found to be 16.6 µM. In addition, the inhibition turned out to be 48.3% in [4] and 37.8% in [5].

Regarding `COC(=O)C(C)c1ccc(-c2ccc(NCc3cc(Cl)ccc3O)cc2)c(F)c1` (stereo not given), the Activity in data set [1] was determined as 1.32 µMequiv/µM; in data set [6] it was 41.9%. The inhibition at 10 µM in data set [2] was 30.6%; in [3] it was below 5%. The inhibition in data set [4] turned out to be 48.3%; in data set [5], 41.9%.

As for `COC(=O)C(C)c1ccc(-c2ccc(NCc3cc(Br)ccc3O)cc2)c(F)c1` (stereo not given), the Activity in [1] was determined as 1.37 µMequiv/µM; in data set [6] it was 36.6%. The inhibition at 10 µM in data set [2] was 29.3%; in data set [3] it was 28.4%. The inhibition is 37% in [4] and 32% in data set [5].

For `COC(=O)C(C)c1ccc(-c2ccc(NCc3cc(CN(C)C)cc(OC)c3O)cc2)c(F)c1` (stereo not given), the Activity worked out at 2.07 µMequiv/µM in [1] and 49.3% in data set [6]. For the same molecule, the inhibition at 10 µM worked out at 17.8% in data set [2] and 36% in [3]. The inhibition stood at 58.2% in [4] and 38.3% in data set [5].

With `Oc1c(I)cc(Cl)c2cccnc12`, the Activity in data set [1] was 0.54 µMequiv/µM; in data set [6], 51.1%. Also, the inhibition in data set [4] worked out at 62.4%; in [5], 40.1%.

For the molecule `COC(=O)C(C)c1ccc(-c2ccc(NCc3cc(CN4CCCCC4)ccc3O)cc2)c(F)c1` (stereo not given), the Activity in [1] is 2.14 µMequiv/µM; in [6], 30.2%. For the same molecule, the results for the inhibition at 10 µM in [2] and in data set [3] were 18.2% and 25.8%, respectively. In addition, the inhibition in data set [4] and in data set [5] was 29.4% each time.

With `COC(=O)C(C)c1ccc(-c2ccc(NCc3cc(CN(C)C)ccc3O)cc2)c(F)c1` (stereo not given), the values for the Activity in data set [1] and in [6] were 1.92 µMequiv/µM and 51.2%, respectively. In addition, the inhibition at 10 µM in [2] turned out to be 22.4%; in [3] it was 32.8%. For the same molecule, the inhibition amounted to 43% in [4] and 43.7% in data set [5].

Consider `COC(=O)C(C)c1ccc(-c2ccc(NCc3nc(C)c(C)nc3C)cc2)c(F)c1` (stereo not given), for which the figures for the Activity in data set [1] and in [6] were 1.69 µMequiv/µM and 18.3%, respectively. In addition, the results for the inhibition at 10 µM in data set [2] and in [3] were 20.4% and 42.5%, respectively. Besides, the IC50 in data set [14] was found to be 15.1 µM. Also, the inhibition came out at 27.5% in data set [4] and 22.5% in [5].
